The text below walks through data of patent US20250051324A1, “PARP INHIBITOR, PHARMACEUTICAL COMPOSITION COMPRISING SAME, AND USE THEREOF” (KEYTHERA (SUZHOU) BIO-PHARMACEUTICALS CO., LIMITED, priority 2021, published 2025).

For series [1], the target named is T1, PARP1 (Homo sapiens (Human), UniProt P09874). The series can be described thus: PARP enzyme activity assay (PARP1 chemiluminescent assay kit). The series is classed as biochemical. Particulars: enzyme inhibitory activity, read-out: PARP-1 IC50. The text has this: Experimental Materials: The PARP1 assay kit was purchased from BPS Bioscience, USA, specifically the 384-well chemiluminescent assay kit (Catalog No.: #80551).
T1 sequence (P09874 whole entry): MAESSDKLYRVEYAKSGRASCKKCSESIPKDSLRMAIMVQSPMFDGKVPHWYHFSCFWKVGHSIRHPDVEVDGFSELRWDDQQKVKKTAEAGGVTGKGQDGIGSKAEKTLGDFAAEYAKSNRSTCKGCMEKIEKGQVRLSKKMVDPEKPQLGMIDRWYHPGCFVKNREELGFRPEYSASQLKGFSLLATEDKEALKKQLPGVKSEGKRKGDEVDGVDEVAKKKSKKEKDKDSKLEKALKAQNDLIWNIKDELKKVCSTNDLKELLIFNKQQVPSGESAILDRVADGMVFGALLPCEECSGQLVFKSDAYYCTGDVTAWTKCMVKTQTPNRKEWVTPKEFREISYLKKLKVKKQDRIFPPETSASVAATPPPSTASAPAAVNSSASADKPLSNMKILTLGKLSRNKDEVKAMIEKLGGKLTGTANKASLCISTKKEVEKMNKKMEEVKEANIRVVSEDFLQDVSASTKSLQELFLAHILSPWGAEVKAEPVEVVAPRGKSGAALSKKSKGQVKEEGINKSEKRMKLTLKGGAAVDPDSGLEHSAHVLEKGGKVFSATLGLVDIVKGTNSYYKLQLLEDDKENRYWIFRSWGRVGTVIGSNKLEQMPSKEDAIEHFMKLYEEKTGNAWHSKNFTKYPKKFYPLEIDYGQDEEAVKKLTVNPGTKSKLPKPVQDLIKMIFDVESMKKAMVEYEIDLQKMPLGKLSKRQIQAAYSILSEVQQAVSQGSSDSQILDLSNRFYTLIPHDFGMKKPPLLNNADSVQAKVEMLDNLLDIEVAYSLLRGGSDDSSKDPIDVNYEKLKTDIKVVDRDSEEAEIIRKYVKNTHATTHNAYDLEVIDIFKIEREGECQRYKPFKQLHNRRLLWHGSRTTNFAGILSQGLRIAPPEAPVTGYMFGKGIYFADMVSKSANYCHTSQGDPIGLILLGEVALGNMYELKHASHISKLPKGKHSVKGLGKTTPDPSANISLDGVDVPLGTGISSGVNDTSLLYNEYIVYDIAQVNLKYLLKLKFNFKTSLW
Experimental Principle: PARP can catalyze the transfer of ADP-ribose residues from NAD+ to target substrates, thereby modifying proteins through ribosylation. This experiment measures PARP1 enzyme activity by detecting the poly(ADP-ribosylation) of histones by PARP1.
Preparation of Reagents and Test Compounds: The 10× assay buffer included in the kit was diluted to 1× with distilled water. The test compound (stock concentration of 10 mM) was diluted to 10 μM with a DMSO solution and then serially diluted in a 1:3 ratio. The serially diluted compounds were further diluted 10-fold with the 1× assay buffer.
Experimental Method: The procedure was carried out according to the kit's instructions:
1. The 5× histone mixture was diluted to 1× with PBS, and 25 μL was added to each well of a 384-well plate, incubating overnight at 4° C.
2. After incubation, 100 μL of PBST (0.05% Tween 20) was added to each well for washing, repeated three times. Then, 100 μL of blocking solution was added to each well and incubated at room temperature for 90 minutes.
3. After incubation, the wells were washed three times with PBST, and then 1.25 μL of 10× assay buffer, 1.25 μL of 10×PARP assay mixture, 2.5 μL of activation DNA (5×), and 7.5 μL of distilled water were added to each well.
4. […] The positive control group and the negative control group were added with 1× assay buffer containing the same concentration of DMSO.
5. Next, 10 μL of 2.5 ng/μL PARP1 enzyme was added to the test compound and positive control groups, while 10 μL of 1× assay buffer was added to the negative control group, and the mixture was incubated at room temperature for 60 minutes.
6. Streptavidin-HRP was diluted 1:50 with the blocking solution. After incubation, the plate was washed three times with PBST, and 25 μL of the diluted streptavidin-HRP solution was added to each well, incubating at room temperature for 30 minutes.
7. After incubation, the plate was washed three times with PBST, and 50 μL of the mixed substrate A and substrate B in equal volumes was added. The luminescence signal was immediately read on a Synergy HTX multi-mode reader.
8. Data analysis was performed using GraphPad Prism 8.0 software. The inhibition rate %=100*(average luminescence signal of the positive control group−luminescence signal of the compound)/(average luminescence signal of the positive control group−average luminescence signal of the negative control group). The IC50 value was obtained by plotting the logarithm of the compound concentration against the percentage inhibition rate.

The nature of series [2]: Liver microsome metabolism assay. Particulars: CD1, mouse, liver microsomes. For orientation: Liver microsomes are vesicles of endoplasmic reticulum, rich in cytochrome P450 enzymes.
For series [3], the system named is MDA-MB-436 breast cancer cells. The experiment in a line: Cell proliferation assay, MDA-MB-436. The series is classed as cell-based. Particulars: Homo sapiens, MDA-MB-436, 168 h; proliferation, 7 days; read-out: MDA-MB-436 Cell IC50. As for the experimental part: Experimental Materials: MDA-MB-436 or UWB1.289 cell lines were purchased from Cobioer Biosciences Co. Ltd. (Nanjing, China). The STR identification results were a complete match, and mycoplasma testing was negative. MDA-MB-436 cells were cultured in DMEM complete medium containing 10% fetal bovine serum, 1% penicillin-streptomycin, 1% insulin, and 16 μg/mL glutathione; UWB1.289 cells were cultured in RMPI1640 complete medium containing 10% fetal bovine serum and 1% penicillin-streptomycin.
1. MDA-MB-436 or UWB1.289 cells were cultured in the aforementioned medium (culture conditions: 37° C., 5.0% CO2 in air) until they reached the logarithmic growth phase. The cells were then digested with trypsin containing 0.25% EDTA, centrifuged at 1000 rpm, and the supernatant was discarded. Cell culture medium was added, and the cell suspension was adjusted to 2×10^4/mL after counting. 135 μL of the cell suspension per well was taken and cultured in a 96-well cell culture plate for 16 hours (culture conditions: 37° C., 5.0% CO2 in air).
2. The test compounds, stored at a concentration of 10 mM, were diluted 2.5 times with DMSO and then serially diluted in a 1:3 gradient (9 gradients). The gradient-diluted samples were further diluted 40 times with serum-free medium, and 15 μL of each was added to the 96-well cell culture plate. The positive control group received serum-free medium containing the same concentration of DMSO, and the negative control group received medium without cells. The cells were then cultured for an additional 7 days.
3. After the culture period, the cell culture plate was placed at room temperature for 30 minutes. Then, 100 μL of CellCounting-Lite 2.0 reagent (Vazyme, #DD1101) was added to each well, mixed thoroughly, and incubated in the dark at room temperature for 10 minutes. The luminescence signal was read using a Synergy HTX multi-mode reader.
4. Data analysis was performed using GraphPad Prism 8.0 software. The inhibition rate (%) was calculated as 100*(average luminescence signal of the positive control group−luminescence signal of the compound)/(average luminescence signal of the positive control group−average luminescence signal of the negative control group). The IC50 value was obtained by plotting the logarithm of the compound concentration against the percentage inhibition rate.

Series [4] can be described thus: Evaluation of pharmacokinetics in rats. The note with it: male, SD, rat, plasma, 1 mg/kg, oral gavage (PO, 1 mpk). The series is classed as in vivo. The source says:
Test Animals: 6-8 Week Old Male SD Rats
Food was restored two hours after dosing.

Series [5] can be described thus: Evaluation of pharmacokinetics in mice. Particulars: male, ICR (CD1), mouse, plasma, po, 10 mg/kg.
Procedure: Test Objective: The pharmacokinetics of the example compounds of the present application were tested in mice. By measuring the drug concentration in mouse plasma, the pharmacokinetic behavior of the compounds of the present invention was studied to evaluate their pharmacokinetic characteristics.
Test Animals: 6-8 Week Old Male ICR (CD1) Mice
Oral Gavage Drug Preparation: An appropriate amount of the test compound was first weighed and dissolved in DMSO (Macklin cas: 67-68-5) to prepare a 20 mg/mL solution. Then, 75 μL of this solution was added to 150 μL of Solutol (Sigma cas: 70142-34-6), followed by 1.275 mL of 20% Captisol (Selleck cas: 182410-00-0), resulting in a final drug concentration of 1 mg/mL.
Intravenous Injection Drug Preparation: An appropriate amount of the test compound was first weighed and dissolved in DMSO (Macklin cas: 67-68-5) to prepare a 30 mg/mL solution. Then, 15 μL of this solution was added to 150 μL of Solutol (Sigma cas: 70142-34-6), followed by 1.335 mL of 20% Captisol (Selleck cas: 182410-00-0), resulting in a final drug concentration of 0.3 mg/mL.
Procedures: The mice were fasted overnight with free access to water before the experiment. Food was restored two hours after dosing. Blood samples were collected at different time points after intravenous injection or oral gavage of the test compound in mice, and the compound concentration in plasma was measured. Approximately 50 μL of blood was collected from each animal using a capillary sampling tube via the orbital venous plexus, with heparin sodium as an anticoagulant. Blood samples were placed on ice, centrifuged at 3500 r/min for 10 minutes to separate the plasma, and 20 μL of the collected plasma was added to 200 μL of acetonitrile (Merck cas: 75-05-8) containing 200 nM dexamethasone (Selleck cas: 50-02-2) as an internal standard. The mixture was centrifuged at 8000 r/min for 20 minutes. After centrifugation, 150 μL of the supernatant was transferred to a new centrifuge tube, and 150 μL of 0.1% formic acid (Fisher cas: 207868) was added. The mixture was mixed well, and 5 μL of the sample was subjected to quantitative analysis by liquid chromatography-mass spectrometry (Q-TOF LC/MS).
The test compound was serially diluted with DMSO to cover the compound concentrations expected in plasma samples to be tested, with a blank sample (containing only DMSO) included.
2 μL of each diluted sample at various concentrations was added to 18 μL of normal ICR mouse plasma, mixed, and then added to 200 μL of acetonitrile (Merck cas: 75-05-8) containing 200 nM dexamethasone (Selleck cas: 50-02-2) as an internal standard. The mixture was centrifuged for 20 minutes (8000 r/min). 150 μL of the supernatant was transferred to a new centrifuge tube, and 150 μL of 0.1% formic acid (Fisher cas: 207868) was added. The mixture was mixed well, and 5 μL of the sample was subjected to quantitative analysis by liquid chromatography-mass spectrometry (Q-TOF LC/MS).
The final standard curve was plotted using the concentration of the test compound after dilution on the abscissa and the ratio of the signal of the compound to the internal standard (dexamethasone) on the ordinate. The standard curve was generated using linear regression with GraphPad Prism 8 software (R2>0.9900).
Data Analysis: calculation of pharmacokinetic parameters: the concentration of the test compound in plasma at different time points after intravenous injection or oral gavage in ICR mice was determined based on the above standard curve, and pharmacokinetic parameters (T1/2, Cmax, AUC, etc.) were calculated using the Phoenix WinNonlin 8.1 non-compartmental analysis model.
Series [6] concerns the target T1, PARP1. The series can be described thus: PARP1 trapping assay. The series is classed as biochemical. Particulars: read-out: Inhibitory Effect on PARP1 Trapping IC50. As for the experimental part:
[table] […] 1. A 4× enzyme reaction mixture, comprising PARP1, PARP2, and GST-Tb antibody, was prepared with the buffer and 4 μL of the enzyme reaction mixture was added to a 384-well plate. 2. A 4×PARP1 and PARP2 probe reaction mixture was prepared with the buffer and 4 μL of the probe reaction mixture was added to the 384-well plate. 3. A series of gradient-diluted compounds were prepared and 4 μL of the diluted compounds were added to the 384-well plate, and incubated at room temperature for 45 minutes. 4. After incubation, 4 μL of 4×NAD reaction mixture was added to the 384-well plate and incubated at room temperature for 10 minutes. 5. After incubation, the plate was read using a plate reader. 6. Data Analysis: The percentage inhibition rate was calculated as follows: Inhibition Rate (%)=(Reading of Compound Group−Reading of Blank Group)/(Reading of Vehicle Control Group−Reading of Blank Group).

For the compound `Cc1c(C(F)(F)F)c(=O)[nH]c2cc(CN3CCN(c4cc5c(cn4)C(=O)NC5)CC3)cnc12` [Compound 15, 4-methyl-7-((4-(3-oxo-2,3-dihydro-1H-pyrrolo[3,4-c]pyridin-6-yl)piperazin-1-yl)methyl)-3-(trifluoromethyl)-1,5-naphthyridin-2(1H)-one], the IC50 (in general, the concentration that inhibits the measured activity by half) on PARP1 [1] turned out to be 3.48 nM. The microsomal CLint (in general, the capacity of the preparation to metabolise the compound, expressed as a volume cleared per time) at 1 µM in series [2] is 0.75 µL/min/mg.
As for `CNC(=O)c1ccc(N2CCN(Cc3cnc4c(C)c(C(F)(F)F)c(=O)[nH]c4c3)CC2C#N)cn1` (stereo not drawn) [Compound 72, 5-(2-cyano-4-((8-methyl-6-oxo-7-(trifluoromethyl)-5,6-dihydro-1,5-naphthyridin-3-yl)methyl)piperazin-1-yl)-N-methylpicolinamide], the IC50 in series [3] stood at 8.18 nM. Moreover, in series [2], the microsomal CLint at 1 µM was determined as 0.6 µL/min/mg.
Consider `CCc1cc2ncc(CN3CCN(c4ccc(C(=O)NC)nc4)CC3)cc2[nH]c1=O` [AZD5305, reference compound], for which, in series [4], the AUC(0-inf) (usually total exposure, with the tail of the curve extrapolated) worked out at 5.6 µg·h/mL; the Cmax (commonly the maximum level reached in the sampled fluid or tissue) was 1400 ng/mL; the half-life (commonly the time needed for the level to fall by half in the phase considered) was 4.09 h. The microsomal CLint at 1 µM in series [2] was determined as 1.23 µL/min/mg. In series [5], this compound had a total exposure AUC(0-inf) of 357 µg·h/mL, a Cmax of 37300 ng/mL and a half-life of 8.25 h.
Take `CNC(=O)c1ccc(N2CCN(C(C)c3cnc4c(C)c(C(F)(F)F)c(=O)[nH]c4c3)CC2)cn1` (stereo not drawn) [Compound 24, N-methyl-5-(4-(1-(8-methyl-6-oxo-7-(trifluoromethyl)-5,6-dihydro-1,5-naphthyridin-3-yl)ethyl)piperazin-1-yl)picolinamide]: the IC50 in series [3] was 4.32 nM. The compound further displayed an intrinsic metabolic clearance (microsomal CLint) at 1 µM in series [2] of 0.4 µL/min/mg. In series [5], this compound had an AUC(0-inf) of 1100 µg·h/mL, a Cmax of 26300 ng/mL and a half-life of 28.7 h.
As for `CNC(=O)c1ccc(N2CCN([C@H](C)c3cnc4c(C)c(C(F)(F)F)c(=O)[nH]c4c3)CC2)cn1` [Compound 90, (R)—N-methyl-5-(4-(1-(8-methyl-6-oxo-7-(trifluoromethyl)-5,6-dihydro-1,5-naphthyridin-3-yl)ethyl)piperazin-1-yl)picolinamide], on PARP1 [6], the IC50 was determined as 4.33 nM. Besides, the IC50 in series [3] amounted to 7.26 nM. For the same compound, the microsomal CLint at 1 µM in series [2] stood at 0.21 µL/min/mg. For the same compound, in series [5], the AUC(0-inf) is 1360 µg·h/mL, the Cmax turned out to be 49900 ng/mL and the half-life is 20.2 h.
Regarding `CNC(=O)c1ccc(N2CCN(Cc3cnc4c(C)c(C#N)c(=O)[nH]c4c3)CC2)cn1` [Compound 85, 5-(4-((7-cyano-8-methyl-6-oxo-5,6-dihydro-1,5-naphthyridin-3-yl)methyl)piperazin-1-yl)-N-methylpicolinamide], the IC50 in series [3] is 16.4 nM. The intrinsic clearance (microsomal CLint) at 1 µM in series [2] is 0.86 µL/min/mg.
Turning to `CNC(=O)c1ccc(N2CCN(Cc3cc4[nH]c(=O)c(C(F)(F)F)c(C)c4cn3)C[C@H]2C)cn1` [Compound 88, (R)—N-methyl-5-(2-methyl-4-((4-methyl-2-oxo-3-(trifluoromethyl)-1,2-dihydro-1,6-naphthyridin-7-yl)methyl)piperazin-1-yl)picolinamide], the IC50 at PARP1 [6] was 1.55 nM. Further, in series [3], the IC50 amounted to 5.75 nM. For the same compound, the microsomal CLint at 1 µM in series [2] is 0.84 µL/min/mg. In series [5], this compound had an AUC(0-inf) of 1650 µg·h/mL, a Cmax of 38200 ng/mL and a half-life of 26.3 h.
Turning to `CNC(=O)c1ccc(N2CCN([C@@H](C)c3cnc4c(C)c(C(F)(F)F)c(=O)[nH]c4c3)CC2)cn1` [Compound 91, (S)—N-methyl-5-(4-(1-(8-methyl-6-oxo-7-(trifluoromethyl)-5,6-dihydro-1,5-naphthyridin-3-yl)ethyl)piperazin-1-yl)picolinamide], the half-inhibitory concentration (IC50) came to 2.9 nM on PARP1 [6] and 3.24 nM in series [3]. The same compound registered a microsomal CLint at 1 µM in series [2] of 0.3 µL/min/mg.
For `CNC(=O)c1ccc(N2CCN(Cc3cc4[nH]c(=O)c(C(F)(F)F)c(C)c4cn3)[C@H](C)C2)cn1` [Compound 87, (R)—N-methyl-5-(3-methyl-4-((4-methyl-2-oxo-3-(trifluoromethyl)-1,2-dihydro-1,6-naphthyridin-7-yl)methyl)piperazin-1-yl)picolinamide] the same measures were 2.57 nM, 5.73 nM and 1.01 µL/min/mg.
